Laboratory results reported in patent publication US12668596B2, “Process for crystallizing nalmefene hydrochloride” (RHODES TECHNOLOGIES, priority 2021, dated 2026).
Where a name gives a salt, the structure may show the parent alone.

Assay: Solubility studies of nalmefene HCl monohydrate in aqueous HCl (visual dissolution at 80° C.)
Format: physicochemical
Protocol: A series of nalmefene HCl monohydrate solubility experiments were carried out in aqueous HCl. Nalmefene HCl monohydrate (520 mg) was charged to a 4 mL capped vial, followed by solvent (0-6 M HCl, 780 μL, 1.5 volumes) and heated to 80° C. on a pie-block. Increasing amounts of solvent were added periodically until dissolution was achieved (determined visually).
Seven dissolution experiments were carried out.

For `C=C1CC[C@@]2(O)[C@H]3Cc4ccc(O)c5c4[C@@]2(CCN3CC2CC2)[C@H]1O5` [Nalmefene HCl, 17-(cyclopropylmethyl)-4,5α-epoxy-6-methylenemorphinan-3,14-diol], the “Volumes needed to dissolve nalmefene HCl at 80° C.” value (shortened to “Volumes needed”) (Sample No. 0, HCl molarity 0 (water), 520 mg) was “Fewer than 1.5 Volumes”, the “Volumes needed” value (Sample No. 1, HCl molarity 1, 520 mg) was 1.5 Volumes and the “Volumes needed” value (Sample No. 2, HCl molarity 2, 520 mg) was 2.5 Volumes. For the same compound, the “Volumes needed” value (Sample No. 3, HCl molarity 3, 520 mg) was 6.5 Volumes, the “Volumes needed” value (Sample No. 4, HCl molarity 4, 520 mg) was 6.5 Volumes and the “Volumes needed” value (Sample No. 5, HCl molarity 5, 520 mg) was 4.0 Volumes. The “Volumes needed” value (Sample No. 6, HCl molarity 6, 520 mg) was 3.5 Volumes and the “HCl molarity at which solubility is at a minimum” value (aqueous HCl 0-6 M) was 3-4 M HCl.
